Where no end group is shown, it is not given here.
Experiments:
[1] = system: macrophages (F4/80+); test: Nanofiber uptake in i.p. lavage cells, flow cytometry: macrophages; type: in vivo, mouse; conditions: 4 hours after i.p. injection of TAMRA-labeled nanofibers
Method: (§1) Nanofiber Uptake and Evaluation. The cell types present and their propensity to uptake nanofibers in the i.p. space was tested by injecting mice i.p. with 100 μL of 2 mM TAMRA-labeled fluorescent nanofibers. 4 hours later, mice were euthanized and i.p. lavage was conducted via the injection of 2 mL of cold 1×PBS into the peritoneal cavity and massaging the abdomen for 30 seconds. The solution was then carefully extracted from the i.p. space and the cells were isolated followed by rinsing with ice cold flow buffer (2% heat-inactivated FBS in 1×PBS). The cells present were treated with mouse BD Fc Block (Clone: 2.4G2) (BD Biosciences, 553142) in flow buffer on ice for 30 min and then washed and stained with antibodies against the following markers: CD5-APC (Clone: 53-7.3) (BioLegend, 100626), F4/80-PerCP/Cy5.5 (Clone: BM8) (BioLegend, 123128), CD19-APC/Cy7 (Clone: 6D5) (BioLegend, 115530), CD11c-PE/Cy7 (Clone: N418) (BioLegend, 117318), and CD86-BV605 (Clone: GL1) (BD Biosciences, 2272591) in flow buffer for 30 min on ice. TAMRA-fluorescence as an indication of nanofiber uptake was measured on the PE channel. Cells were then washed in flow buffer and stained with DAPI. Flow cytometry was conducted on a BD FACSCanto II cytometer and the results were analyzed using FlowJo software.

[2] = system: B1a cells (CD19+CD5+); test: Nanofiber uptake in i.p. lavage cells, flow cytometry: B1a cells; type: in vivo, mouse; conditions: 4 hours after i.p. injection
Method: as §1

[3] = system: mouse anti-PC IgM monoclonal antibody (Clone: BH8); test: ELISA for measuring nanofiber epitope reactivity; type: binding; conditions: nanofibers coated at 0.2 mM; PC-BSA positive control
Method: ELISA for Measuring Nanofiber Epitope Reactivity. The reactivity of PC conjugation methods was determined via binding of a mouse anti-PC IgM monoclonal antibody (Clone: BH8) (Sigma, MABF2084) to nanofibers. Nanofibers were diluted to 0.2 mM and coated onto 96-well plates at 4° C. overnight. PC-BSA (Biosearch Technologies, PC-1011-10) was coated at 20 μg/mL in 1×PBS overnight as a positive control, and PBS was used as a negative control. The next day, the plates were washed using 1×PBS with 0.05% Tween 20 (1×PBST) and then blocked with Superblock blocking buffer solution (Thermo Fisher, 37515) three times. This was followed by the addition anti-PC IgM which was serially diluted in 1% BSA in 1×PBST by 5-fold steps beginning from 1:100 (5 μg/mL) and allowed to incubate for 2 h at room temperature. Anti-PC IgM bound to nanofibers was then detected with HRP-conjugated goat anti-mouse IgM (Southern Biotech, 1021-05) and the absorbance values at 450 nm were measured.

[4] = Zeta potential of nanofibers; type: physicochemical; conditions: 1 mM conjugate coassembled with 1 mM Q11; 0.2 mM in 1×PBS, 25° C.
Method: Zeta Potential. Nanofibers were diluted to 0.2 mM in 1×PBS and zeta potential measurements were conducted at 25° C. using an Anton Paar Litesizer 500.

[5] = system: C57BL/6 mice; test: Serum anti-PC antibody responses of immunized mice via ELISA (PC-BSA coated); type: in vivo, mouse; conditions: 10% Cys4-Q11 added to PC-Q11 or PCM-Q11 nanofibers; i.p.
Method: Mice and Immunizations. Female C57BL/6 mice (Envigo) age 6-10 weeks were used to initiate experiments except for the Il10^−/− colitis study where female B6.129P2-Il10^tm1Cgn/J (The Jackson Laboratory) mice age 5-7 weeks were used. While female mice were used for most experiments, age-matched male C57BL/6 mice (Envigo) were used in a one cycle acute DSS colitis model to confirm efficacy across sexes. Mice were housed at Duke University. All experimental procedures were performed on protocols (A264-18-11 and A199-21-09) approved by the Duke University Institutional Animal Care and Use Committee (IACUC). For subcutaneous immunizations, anesthetized mice were injected once behind each shoulder with 50 μL of 2 mM peptide nanofiber solution or 1×PBS. For intraperitoneal immunizations, mice were injected with 100 μL of 2 mM peptide nanofiber solution or 1×PBS. Nanofiber immunizations with adjuvant contained 10 μg CpG (ODN 1826, IAX-200-002-3001, Innaxon). For injections of only CpG, 10 μg of CpG in 100 μL 1×PBS was used. Mice were typically given three immunizations, with the specific boosting schedules stated in each figure caption, usually at weeks 0, 2, and 4, as this was determined to produce robust antibody responses in a short time frame.
Detection of Anti-PC Antibody Responses via ELISA. Anti-PC antibody responses in serum collected from the submandibular vein in mice were measured using ELISA. Briefly, plates were coated with 20 μg/mL PC-BSA (Biosearch Technologies, PC-1011-10) in 1×PBS or just 1×PBS at 4° C. overnight. The next day, the plates were washed using 1×PBST (1×PBS with 0.05% Tween 20) and then blocked three times with Superblock blocking buffer solution (Thermo Fisher, 37515). Serum diluted from 1:10^2 to 1:10^5 in 1% BSA in 1×PBST was the added to the plate and allowed to incubate for 2 h at room temperature. Anti-PC IgG was detected using HRP-conjugated Fcγ fragment-specific goat anti-mouse IgG (Jackson Immuno Research, 15-035-071). IgG subclasses and IgM anti-PC antibodies were detected using Southern Biotech HRP-conjugated goat anti-mouse antibodies (IgG1, IgG2b, IgG2c, IgG3, & IgM: 5300-05B). Area under the curve (AUC) measurements were calculated using background-subtracted absorbance values at dilutions from 1:10^2 to 1:10^5. Antibody titers were defined using an absorbance cutoff above background of 0.2 OD, where titer 2 represents an OD value greater than 0.2 at 1:10^2 dilution and so on up to titer 5 at 1:10^5 dilution.

Substance | macrophages staining positively for nanofibers [1] | CD86 activation marker on TAMRA+ B1a cells vs non-B1a cells [2] | binding of anti-PC mAb to nanofibers [3] | zeta potential (surface charge) of nanofibers [4] | effect of extra cysteines on anti-PC antibody responses [5]
AC-QQKFQFQFEQQ-NH2 (Ac-QQKFQFQFEQQ-NH2) [Q11] | almost all macrophages staining positively for nanofibers | not seen | not |  | 
C5H14NO4P-SGSG-QQKFQFQFEQQ-NH2 (C5H14NO4P-SGSGQQKFQFQFEQQ-NH2) [pa-PC-Q11, phosphoramidate-linked PC-Q11] |  |  | not | positively charged | 
CCCCSGSG-QQKFQFQFEQQ-NH2 (CCCCSGSGQQKFQFQFEQQ-NH2; cysteine pairing not given here) [Cys4-Q11] |  |  |  |  | did not significantly enhance or reduce the anti-PC antibody responses
